Data published in ChEMBL document CHEMBL1201862, “PubChem BioAssay data set” (2004).
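Growth conditions: 96-well plates. Treatment: test compound, 48 hours, 5 concentrations. Analysis: linear interpolation between bracketing concentrations; unreached endpoints set to highest concentration. GI50 = concentration required for 50% inhibition of growth.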 The source made the active and inactive calls. Cut-off read from the data, not from the text of the source: active = GI50 up to about 1.1 µM and inactive = higher.

What was measured:
Assay in all cases: inhibition of tumour cell growth, NCI panel, 48 h
SN12C = tested on: SN12C
UACC-257 = tested on: UACC-257
EKVX = tested on: EKVX
CAKI-1 = tested on: CAKI-1
RPMI-8226 = tested on: RPMI-8226
SK-OV-3 = tested on: SK-OV-3
K562 = tested on: K562
OVCAR-5 = tested on: OVCAR-5
SK-MEL-5 = tested on: SK-MEL-5
U-251 = tested on: U-251
IGROV-1 = tested on: IGROV-1
HL-60 = tested on: HL-60
NCI-H522 = tested on: NCI-H522
KM12 = tested on: KM12
OVCAR-3 = tested on: OVCAR-3
Malme-3M = tested on: Malme-3M
LOX IMVI = tested on: LOX IMVI
RXF 393 = tested on: RXF 393
SF-539 = tested on: SF-539
HCC 2998 = tested on: HCC 2998

Measured: GI50

C=C1C(=O)OCC2C(C(=O)O)=CC3C(C)C(C)=CC123 (stereo not given)
inactive: SN12C 8.73 µM | UACC-257 16.7 µM | EKVX 21.7 µM | CAKI-1 19.6 µM | RPMI-8226 7.23 µM | SK-OV-3 16.4 µM | K562 10.2 µM | OVCAR-5 27.5 µM | SK-MEL-5 9.31 µM | U-251 11 µM | IGROV-1 11.9 µM | HL-60 9.33 µM | NCI-H522 2.31 µM | KM12 9.93 µM | OVCAR-3 12.4 µM | Malme-3M 7.33 µM | LOX IMVI 8.13 µM | RXF 393 7.4 µM | SF-539 8.51 µM | HCC 2998 10.2 µM

CCCCCCCC/C=C\CCCCCCCC(=O)O [OLEIC ACID]
inactive: SN12C 51.6 µM | UACC-257 105 µM | EKVX 124 µM | CAKI-1 118 µM | RPMI-8226 91.6 µM | SK-OV-3 > 500 µM | K562 104 µM | OVCAR-5 > 500 µM | SK-MEL-5 > 212 µM | U-251 149 µM | IGROV-1 178 µM | HL-60 126 µM | NCI-H522 101 µM | KM12 240 µM | OVCAR-3 184 µM | Malme-3M > 500 µM | LOX IMVI 116 µM | RXF 393 92.7 µM | SF-539 103 µM | HCC 2998 > 434 µM
